What was measured:
[1] = test system: rats suffering from puromycin-caused nephropathy; test: 24-hour urine protein in rats suffering from puromycin-caused nephropathy; format: in vivo, Sprague-Dawley rats; settings: 10 mg/kg verbascoside intragastrically every day
Excerpt: (§1) The animal experiment was approved by Animal Ethics Committee of Peking University First Hospital, with Resolution No.: J201644. 51 male Sprague-Dawley rats (6 weeks) of the same batch were purchased from Beijing Charles River Company, raised at the animal center of Peking University First Hospital (clean grade), and randomly divided into 3 groups after 3 days of acclimation:
1. normal control group (CON)
2. puromycin disease group (PAN)
3. puromycin+verbascoside-treated group (PAN+ACT)
(§2) In the above, groups 2 and 3 were intraperitoneally subjected to single injection of puromycin (Sigma P7130) by 15 mg/100 g at day 0 of the experiment. The normal control group was intraperitoneally injected with the same dosage of physiological saline. Group 3 was intragastrically treated with 10 mg/kg verbascoside every day, and groups 1 and 2 were intragastrically treated with the same dosage of injection water every day. In the experiment process, 24-hour urine of the rats was collected respectively before the administration (Day 0), and at the 5th day, the 10th day, the 15th day, and the 20th day (Day 5, Day 10, Day 15, and Day 20) after the administration, for quantitative measurement of urine protein (Hitachi 7170A full-automatic biochemical analyzer). The rats were sacrificed at the 20th day (Day 20) after the injection of puromycin, and kidney specimens were collected, which were subsequently used for extracting protein, extracting RNA, taking paraffin-embedded and frozen specimens, and separating glomeruli.
In order to determine the therapeutic effect of verbascoside on the rats suffering from puromycin-caused nephropathy, the rats were divided into 3 groups, normal control group (CON), disease group (PAN), and verbascoside group (PAN+ACT). 24-hour urine of the rats in each group were sampled every 5 days. The effect of verbascoside for treating the nephropathic proteinuria level was reflected by collecting and detecting blood and urine samples of the rats in each group.

podocyte foot process = test: Podocyte foot process under electron microscope in puromycin-induced nephropathic rat models; format: in vivo, Sprague-Dawley rats; settings: 20th day; 10 mg/kg intragastrically every day
Method: as §1
as §2, with “The rats were sacrificed at the 20th day (Day 20) after the injection of puromycin, and kidney specimens were collected, which were subsequently used for extracting protein, extracting RNA, taking paraffin-embedded and frozen specimens, and separating glomeruli.” left out

synaptopodin = test: Synaptopodin immunofluorescence of kidney tissue in puromycin-induced nephropathic rats; format: in vivo, Sprague-Dawley rats; settings: 20th day, 10 mg/kg intragastrically every day
Method: as §1
as §2, with “The rats were sacrificed at the 20th day (Day 20) after the injection of puromycin, and kidney specimens were collected, which were subsequently used for extracting protein, extracting RNA, taking paraffin-embedded and frozen specimens, and separating glomeruli.” left out
The kidney tissue was sliced. […] The mixture was rinsed with deionized water, mounted with 50% buffered glycerol, edge sealed with nail polish, observed under a fluorescence microscope, and photographed. […]

nephrin [2] = test: Nephrin gene and protein expression in glomeruli of puromycin-induced nephropathic rats (western, real-time quantitative PCR); format: in vivo, Sprague-Dawley rats; settings: 20th day, 10 mg/kg intragastrically every day
Method: as §1
as §2, with “The rats were sacrificed at the 20th day (Day 20) after the injection of puromycin, and kidney specimens were collected, which were subsequently used for extracting protein, extracting RNA, taking paraffin-embedded and frozen specimens, and separating glomeruli.” left out

mouse podocyte line MPC5 [3] = test: Detection of podocyte activity with MTS in puromycin-induced podocyte damage; format: cell-based; settings: 24 h
Method: (§3) A mouse podocyte line MPC5 was offered by professor Peter Mundel from Mount Sinai Medical School, New York, USA. After recovery, podocytes were placed in a 33° C., 5% CO2 cell incubator to be cultured for proliferation thereof. When a fusion degree thereof reached about 80%, the podocytes were transferred into a 37° C. incubator to be differentiated for 10-14 days such that the podocytes were differentiated to be mature. After the podocytes were differentiated to be mature, the podocytes were inoculated in a 6-well plate, and after the podocytes adhered to the wall, puromycin and verbascoside were added into the plate to stimulate the podocytes for 24 hours, and then proteins or RNAs were collected for later detection.
After subculturing and counting the podocytes, the podocytes were uniformly inoculated into a 96-well plate at a density of 1.0×10^5/mL, after the cells adhered to the wall, puromycin and verbascoside were respectively added to treat the podocytes, then after 24 h, the culture medium was discarded, a culture medium containing MTS (Promega G1112) was added with the MTS content of 10 μl MTS per 100 μl of the culture medium, the 96-well plate added with the MTS was placed in a light-tight environment at 37° C. for 4 h and then taken out, and an OD value was measured at 490 nm wavelength using the ELIASA.

mouse podocyte line MPC5 [4] = test: Cell migration (scratch) experiment in puromycin-treated podocytes; format: cell-based; settings: 24 hours after scratch
Method: as §3
The differentiated podocytes were inoculated on a 6-well plate coated with rat type I collagen, and when the fusion degree thereof reached 60%, a line was scratched on a baseboard using a 200 μL sterile high-pressure gun tip, then the plate was flushed clean using PBS and a clean culture medium was used in replacement, which time was served as the 0th hour, and a photo was taken by an inverted microscope, then a corresponding drug was added for intervention, then after 24 hours, a photo was taken again, and finally analysis was made using ImageJ software. The final result was expressed by percentage of coverage.

nephrin [5] = test: Nephrin protein expression in puromycin-induced podocyte damage (western blot); format: cell-based, mouse; settings: 24 hours
Method: as §3, with “detection. […]” for “detection.”

mouse podocyte line MPC5 [6] = test: Phalloidin staining of podocyte cytoskeletal microfilamentous proteins; format: cell-based; settings: puromycin-treated podocytes
Method: as §3
The kidney tissue was sliced. First, slices were subjected to xylene and gradient alcohol deparaffinization, followed by antigen retrieval, and then punched with 0.3% Triton-PBS. […] The mixture was rinsed with deionized water, mounted with 50% buffered glycerol, edge sealed with nail polish, observed under a fluorescence microscope, and photographed. […]

Verbascoside
24-hour urine protein vs puromycin group ([1]; 5th day, puromycin 15 mg/100 g i.p.): not significantly different
24-hour urine protein vs disease group ([1]; 10th day, puromycin 15 mg/100 g i.p.): decreased significantly
24-hour proteinuria abnormality ([1]; 15th day): remarkably relieved
24-hour proteinuria abnormality ([1]; 20th day): remarkably relieved
podocyte foot process fusion (electron microscope) (podocyte foot process): recovered apparently
synaptopodin fluorescence intensity (synaptopodin): recovered
nephrin gene expression level (real-time quantitative PCR) (nephrin [2]): increased
nephrin protein expression level (western) (nephrin [2]): increased
podocyte viability (MTS, OD 490 nm) (mouse podocyte line MPC5 [3]): recovered
podocyte migration capability (percentage of coverage) (mouse podocyte line MPC5 [4]): restored
nephrin expression (protein) (nephrin [5]): improved
arrangement of the cytoskeletons (phalloidin) (mouse podocyte line MPC5 [6]): restored

From patent US11471472B2, “Use of verbascoside in preparation of drug for preventing or treating glomerular podocyte injured renal disease” (SICHUAN MEDCO PHARMACEUTICAL STOCK CO., LTD., priority 2017, dated 2022)
